No end group written: not given here.
Tests used:
[1] = test system: B10.D2 fibroblasts in the presence of NP 148-155 peptide; experiment: CTL immunogenicity of modifications and formulations of PR8-NP 148-155 (Table I); format: in vivo, Balb/c mouse; conditions: in words
Method: Three weeks after immunization splenocytes were removed and stimulated in vitro with the flu 147-155 peptide. CTL activity was assayed one week later using ^51 Cr-labeled B10.D2 fibroblasts as targets. Target cells were tested in the absence of antigen, in the presence of Flu 147-155 peptide or following infection with influenza PR8 virus.
^b = CTL immunogenicity of various modifications and formulations of NP
result obtained from spleen cells derived from a single Balb/c mouse and
# the effector to target ratio (E:T) required to induce 40% antigen
specific lysis of ^51 Cr labeled B10D2 target cells in the presence of
ND148-155 peptide; +++ E:T below 10:1; ++ E + T between 10 + 1 and […]

[2] = test system: Jurkat A2-1/Kb target cells; Jy target cells; Jy cells transfected with HBV core; set-up: species or system HLA-A2-1/kb transgenic mice; conditions: mouse, in vivo, sc
[3] = test system: Jurkat A2.1/K^b target cells; experiment: CTL lysis after restimulation of splenocytes from mice primed with HBV-loaded spleen cells (Example I); format: cell-based, A2.1/K^b transgenic mice (effector cells); conditions: for representation of CTL epitopes: conclusion of Example I, FIGS. 1 and 2; for CTL lysis of Jurkat A2/K^b target cells: individual peptides, FIG. 1 panels E through H
[4] = test system: Jurkat A2.1/K^b target cells; experiment: CTL induction from splenocytes of mice primed subcutaneously with purified HBV in IFA (Example II); format: cell-based, A2.1/K^b transgenic mice (effector cells); conditions: for ability to induce in vitro CTL from splenocytes of HBV-primed mice: FIGS. 3 and 4
[5] = test system: Jurkat A2/K^b target cells; experiment: In vivo HBc 18-27-specific CTL priming by CTL and T helper epitopes (Example IV); set-up: species or system HLA-A2.1/K^b transgenic mice; conditions: for magnitude of HBc18-27-specific CTL activity relative to other immunogens: comparison in words; for requirement of prior T helper priming for CTL priming: without previous priming with 875.23 in CFA; for HBc18-27-specific CTL response: 100 μg subcutaneously, transgenic mice
Method: Animals were primed subcutaneously with 100 μg of 875.23 (T helper epitope) in Complete Freund's Adjuvant (CFA) followed 9 days later (subcutaneously) with […]. Splenocytes were removed 3 weeks later, cultured for 6 days in the presence of LPS-blasts that had been incubated with the CTL epitope (875.15), 100 μg for 2 hrs before being washed and added to the culture as a source of antigen presenting cells. The presence of HBc 18-27 (875.15)-specific CTL was determined using a standard 6 hr […] release assay with Jurkat A2.1/K^b cells as targets.
This example describes experiments which define the relative in vivo HBV-specific CTL priming efficiency of peptides expressing HBV CTL epitopes alone, CTL epitopes mixed with peptides containing T helper epitopes or CTL epitopes physically linked to T helper epitopes.
Nine days later each of the following peptides were injected subcutaneously into two unprimed and two helper-primed mice, 100 μg/mouse in incomplete Freund's adjuvant (IFA).
Three weeks after priming with the CTL epitope, splenocytes were in vitro restimulated with LPS blasts coated with HBc 18-27 (coating was achieved by incubating 30×10^6 LPS blasts with 100 μg of HBc18-27 in one ml of medium; after 1-2 hr at 37° C., the cells were washed). After 6 days, effector cells were assayed for lytic activity against ^51 Cr labelled Jurkat A2 /K^b target cells in the presence or absence of HBc18-27.

ovalbumin-specific CTL = conditions: cited from earlier work
[6] = listed as linked peptides without spacer

## (PAM)2 KSS-ISQAVHAAHAEINE-AAA-TYQRTRALV ({(PAM)2}-KSSISQAVHAAHAEINEAAATYQRTRALV) [Peptide 932.05]
[1]
  comparison of constructs and formulations: superior when injected in saline or Alum compared to all of the other combinations

## (PAM)2 KSSISQAVHAAHAEINE-TYQRTRALV ({(PAM)2}-KSSISQAVHAAHAEINETYQRTRALV) [Peptide 932.04]
[1]
  comparison of constructs and formulations: superior when injected in saline or Alum compared to all of the other combinations

## Ac-Gln-Tyr-Ile-Lys-Ala-Asn-Ser-Lys-Phe-Ile-Gly-Ile-Thr-Glu-Ala-Ala-Ala-Phe-Leu-Pro-Ser-Asp-Phe-Phe-Pro-Ser-Val-OH (Ac-QYIKANSKFIGITEAAAFLPSDFFPSV-OH) [Peptide 934.02]
[2]
  CTL response specific for HBc 18-27: induction of a CTL response specific for HBc 18-27

## Asn-Cys-Thr-Cys-Ile-Pro-Ile-Pro-Ser-Ser-Trp-Ala-Phe-Gly-Lys-Phe-Leu-Trp-Glu-Trp [Peptide 799.08]
[3]
  CTL response and its MHC class I mediation: induces a CTL response which is mediated by at least the MHC class I molecule HLA-A2
  representation of CTL epitopes: clearly represent CTL epitopes
  CTL lysis of Jurkat A2/K^b target cells: induced CTL lysis of Jurkat A2 /K^b target cells above background

## ISQAVHAAHAEINE-AAA-TYQRTRALV (ISQAVHAAHAEINEAAATYQRTRALV) [Peptide 932.03]
[1]
  comparison of constructs and formulations: superior to mixing the T helper+CTL (i.e., non-linked) and worked well in IFA, but not well in saline or Alum

## ISQAVHAAHAEINE-TYQRTRALV (ISQAVHAAHAEINETYQRTRALV) [Peptide 932.02]
[1]
  comparison of constructs and formulations: superior to mixing the T helper+CTL (i.e., non-linked) and worked well in IFA, but not well in saline or Alum

## LSPTVWLSVI [Peptide 884.02]
[4]
  recognition of truncation peptides by CTL raised against the larger peptide: recognized by the CTL raised against the larger epitopes
  ability to induce in vitro CTL from splenocytes of HBV-primed mice: clearly able to induce in vitro CTL

## LSPTVWLSVIWMMWYWGPSL [Peptide 799.10]
[3]
  representation of CTL epitopes: defined as containing CTL epitopes
  CTL lysis of Jurkat A2/K^b target cells: induced CTL lysis of Jurkat A2 /K^b target cells above background
[3]; listed as HBenv 349-368
  representation of CTL epitopes: clearly represent CTL epitopes
[4]
  ability to induce in vitro CTL from splenocytes of HBV-primed mice: clearly able to induce in vitro CTL

## MGLKFRQLLW [Peptide 883.03]
[4]
  recognition of truncation peptides by CTL raised against the larger peptide: recognized by the CTL raised against the larger epitopes
  ability to induce in vitro CTL from splenocytes of HBV-primed mice: clearly able to induce in vitro CTL

## NMGLKFRQLL [Peptide 883.02]
[4]
  recognition of truncation peptides by CTL raised against the larger peptide: recognized by the CTL raised against the larger epitopes
  ability to induce in vitro CTL from splenocytes of HBV-primed mice: clearly able to induce in vitro CTL

## TPPAYRPPNAPILAAAFLPSDFFPSV-NH2 [Peptide 902.02]
[5]
  magnitude of HBc18-27-specific CTL activity relative to other immunogens: greatest HBc18-27 (875.15)-specific CTL activity was detected
  requirement of prior T helper priming for CTL priming: previous priming of helper T cells was not required
[5]; listed as T helper and CTL HBV peptides were linked by a Ala-Ala-Ala spacer
  magnitude of HBc18-27-specific CTL activity relative to other immunogens: specific CTL activity greater than induction of specific CTL activity with the linked peptides without spacer
[5]; listed as T helper and CTL epitopes via an alanine-alanine-alanine spacer
  magnitude of HBc18-27-specific CTL activity relative to other immunogens: specific CTL activity greater than that detected by linking the T helper and CTL determinants alone

## TPPAYRPPNAPILFLPSDFFPSV-NH2 [Peptide 902.01]
[5]
  HBc18-27-specific CTL response: HBc-specific (875.15) CTL activity was detected
  requirement of prior T helper priming for CTL priming: previous priming of helper T cells was not required
[5]; [6]
  HBc18-27-specific CTL response: induce specific CTL priming of animals in all animals studied
  magnitude of HBc18-27-specific CTL activity relative to other immunogens: at levels which were greater than when the CTL peptide and T helper peptide were administered unlinked
[5]; 100 μg/mouse in IFA subcutaneously
  animals with HBc18-27-specific CTL response: 100%
[5]; listed as T helper epitope linked to the CTL epitope
  magnitude of HBc18-27-specific CTL activity relative to other immunogens: greater than that detected when the epitopes were administered non-linked

## Thr-Asn-Met-Gly-Leu-Lys-Phe-Arg-Gln-Leu-Leu-Trp-Phe-His-Ile-Ser-Cys-Leu-Thr-Phe [Peptide 802.03]
[3]
  CTL response and its MHC class I mediation: induces a CTL response which is mediated by at least the MHC class I molecule HLA-A2.1
  representation of CTL epitopes: defined as containing CTL epitopes
  CTL lysis of Jurkat A2/K^b target cells: induced CTL lysis of Jurkat A2 /K^b target cells above background
[3]; listed as HBc 91-110
  representation of CTL epitopes: clearly represent CTL epitopes
[4]
  ability to induce in vitro CTL from splenocytes of HBV-primed mice: clearly able to induce in vitro CTL

## Thr-Pro-Pro-Ala-Tyr-Arg-Pro-Pro-Asn-Ala-Pro-Ile-Leu (TPPAYRPPNAPIL) [Peptide 875.23]
[5]
  HBc18-27-specific CTL response: no HBc18-27-specific CTL response is detected
[5]; listed as T helper peptide
  HBc18-27-specific CTL response: did not induce HBc-specific CTL

## ovalbumin: ovalbumin (OVA) in IFA
ovalbumin-specific CTL; i.v. or i.p.
  generation of CTL: generally does not lead to the generation of CTL
ovalbumin-specific CTL; in IFA subcutaneously
  ovalbumin-specific CTL response: induces an ovalbumin-specific CTL response in mice
